{"source": "patent US20210315839A1", "about": "“USE OF SPERMIDINE FOR THE ENHANCEMENT OF MITOCHONDRIAL RESPIRATION” (TLL THE LONGEVITY LABS GMBH, priority 2016, published 2021)", "system": "mitochondrial Complex I", "experiment": "High resolution respirometry of cardiac mitochondria isolated from spermidine supplemented aged mice (Complex I activity)", "format": "in vivo, C57BL/6 mice", "details": "for activity of mitochondrial Complex I (respiratory competence of cardiac mitochondria through respiratory chain complex I, OXPHOS stage): isolated cardiac mitochondria of 24 month old mice after 6 months of spermidine supplementation (24M+S) vs aged control (24M), complex I supplying substrates, 37° C., N-5/5", "protocol": "Mitochondria isolated from cardyomyocytes of spermidine or sham treated 24 month old and 4 month old (young reference) C57B/63 wildtype mice were used for measurement of mitochondrial respiratory activity.\nWild type C57BL/6 mice were purchased from Janvier Labs, France (C57BL6/J:Rj males). Supplementation of spermidine was conducted late in life (starting at age of 18 months). After 6 months of treatment, isolation of cardiac mitochondria and high resolution respirometry was performed, using an isolation buffer containing 0.2% BSA and 5 mg/ml bacterial protease (Sigma-Aldrich, P8038). Hearts were quickly excised immediately after final blood collection under isoflurane anaesthesia and processed.\nOptical density at 600 nm (0D600) of the final mitochondrial suspension (isolation buffer including BSA, but excluding protease) was determined by serial dilutions in a TECAN GeniusPro plate reader and served as an estimate of mitochondrial mass used for normalization. Oxygen consumption was assayed at 37° C. with an Oxygraph 2 k high resolution respirometer (Oroboros Instruments, Austria) according to the manufacturer's recommendations. OD600 equivalents of isolated myocardial mitochondria corresponding to 10-20 ug mitochondrial protein were diluted in 2 ml equilibrated measurement medium (100 mM sucrose, 20 mM K+−TES (pH=7.2), 50 mM KCl, 2 mM MgCl2, 1 mM EDTA, 4 mM KH2PO4, 3 mM malate and 0.1% (v/v) BSA) within a closed and calibrated system with constant stirring. […]\nIn FIG. 1A representative oxygraph recordings and (B) quantification of mitochondrial respiration (only OXPHOS stage shown) from isolated cardiac mitochondria incubated with complex I supplying substrates […] and pyruvate (Gly/Pyr) are shown. ROX, Residual respiration (State 1) in the absence of reduced substrate and ADP; LEAK, Respiration compensating for proton leak in the absence of ADP but presence of reduced substrate; OXPHOS, ADP stimulated respiration of coupled mitochondria (quantification shown in FIG. 1B); OXPHOS+CytC, Oxphos after addition of cytochrome C. […]", "data": [{"smiles": "NCCCCNCCCN", "note": "[Spermidine, N-(3-Aminopropyl)-1,4-diaminobutane]", "values": [{"measurement": "age-induced decline in mitochondrial respiratory function", "setting": "aged spermidine supplemented mice vs aged control and young reference mice, cardiac mitochondria", "result": "reversed"}, {"measurement": "activity of mitochondrial Complex I (respiratory competence of cardiac mitochondria through respiratory chain complex I, OXPHOS stage)", "result": "increases the activity of mitochondrial Complex I"}, {"measurement": "activity of mitochondrial Complex I (respiratory competence of cardiac mitochondria through respiratory chain complex I, OXPHOS stage)", "setting": "listed as spermidine", "result": "increased"}]}]}
